Blank lines part the entries; values can stand above or below the compound they belong to.
What was measured:
in vivo = assay type: in vivo, male Sprague-Dawley rats; details: rat, in vivo, iv
Experimental: (§1) A clinical isolate of E. Coli was stored at -70°C in a freezing media containing 20% glycerol and 80% dextrose phosphate until use. Aliquots of bacteria were defrosted and colony counts performed on serial dilutions grown overnight on BBL Brucella agar plates. Based on the colony count, freshly thawed bacteria suspensions were washed and diluted with saline to a final concentration of […]. Aliquots (0.1 ml) of bacterial suspensions (8 x 10^9 organisms/ml) were injected into the right thigh muscle of 48 male Sprague-Dawley rats (125-150 g, Charles River Breeding Laboratories, Burlington, MD). Twenty-four rats were used for each labeled biotin compound. Twenty-four hours after injection, swelling in the right thigh readily appeared, and 24 rats each received 1.67 mg of avidin in saline via the tail vein. […] Rats were sacrificed at 5 and 60 min. post-injection, six rats per time point. Blood samples were obtained by cardiac puncture. Syringes were weighed before and after injection to determine the volume delivered. The activity per unit volume was obtained from standards. A total of eleven different tissues were excised, weighed, and counted. These tissues included blood; bone; lung; liver; adrenal; spleen; kidneys; heart; muscle (thigh); teste; and infected muscle (thigh). The excised tissues were blotted, weighed, and counted in a scintillation well counter. The raw counts were decay corrected. The results were expressed as percent injected dose per gram, and infection-to-normal muscle ratios (mean ± s.d.). The biodistribution results were evaluated by analysis of variance (one-way ANOVA). The effect of avidin […] on biodistribution was evaluated by student t-test.

E. coli infected rats = experiment: in vivo; assay type: in vivo, male Sprague-Dawley rats; details: for Infected to normal tissue ratio, Norm mus: infection/normal muscle
Experimental: as §1

avidin = avidin (Gallus gallus, UniProt P02701); experiment: Competitive binding of F-18 labeled biotin analogs to avidin vs. unlabeled d-biotin; details: in the presence of varying concentrations of unlabeled d-biotin
Experimental: The two biotin derivatives were evaluated for binding to avidin in the presence of varying concentrations of unlabeled d-biotin as described in Example 3.
A preliminary measure of the binding characteristics of the fluoro analogs of biotin were performed. The binding of these novel F-18 labeled biotin analogs to avidin was evaluated by measuring the binding of F-18 labeled biotin analogs to avidin in the presence of varying concentrations of unlabeled d-biotin. Serial dilutions of d-biotin were prepared in phopshate buffered saline pH 7.4 (PBS). A fixed quantity of the no-carrier added F-18 labeled biotin 1 or 2 (10- 100µCi) were mixed with each d-biotin dilution so that the range of concentrations of cold biotin were 3 orders of magnitude greater and less than the concentration of avidin ([…]). A 200 µl aliquot of the F-18 biotin/cold biotin solution was added to 200 µl of avidin in PBS. The solution was vortexed and allowed to incubate for 1 hour after which time a 5 µl aliquot of the solution was analysed by instant thin layer chromatography (Gelman ILTC-SG) using 0.1 M acetate buffer pH 6.0. In this chromatographic system the F-18 biotin analogs bound to avidin origin while the unbound F-18-biotin analogs move to the solvent front. Percent binding of F-18 biotin analog was calculated as [(counts at origin/total counts)* 100]. For each F-18-biotin analog potential impurities remaining at the origin were determined and the results of binding corrected accordingly.

[1] = system: E. coli infection in right thigh; details: Time 4 (time unit not given); Reference *1; cited from earlier work

avidin, sequence (P02701 25-152): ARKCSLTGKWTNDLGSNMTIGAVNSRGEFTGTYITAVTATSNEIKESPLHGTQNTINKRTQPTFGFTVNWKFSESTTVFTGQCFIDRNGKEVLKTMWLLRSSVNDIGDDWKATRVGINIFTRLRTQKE

tissue uptake at 5 min (in vivo; Tissue distribution, Adrenal): 1.56 ± 0.14 %ID/g | tissue uptake at 1 h (in vivo; Tissue distribution, Adrenal): 0.92 ± 0.21 %ID/g | tissue uptake at 5 min (in vivo; Tissue distribution, Blood): 0.88 ± 0.07 %ID/g | tissue uptake at 1 h (in vivo; Tissue distribution, Blood): 0.3 ± 0.02 %ID/g | tissue uptake at 5 min (in vivo; Tissue distribution, Bone): 0.73 ± 0.09 %ID/g | tissue uptake at 1 h (in vivo; Tissue distribution, Bone): 1.17 ± 0.21 %ID/g | tissue uptake at 5 min (in vivo; Tissue distribution, Heart): 0.8 ± 0.06 %ID/g | tissue uptake at 1 h (in vivo; Tissue distribution, Heart): 0.25 ± 0.03 %ID/g | tissue uptake at 5 min (in vivo; Tissue distribution, Inf mus): 0.49 ± 0.05 %ID/g | tissue uptake at 1 h (in vivo; Tissue distribution, Inf mus): 0.2 ± 0.02 %ID/g | tissue uptake at 5 min (in vivo; Tissue distribution, Kidney): 1.62 ± 0.18 %ID/g | tissue uptake at 5 min (in vivo; Tissue distribution, Liver): 1.63 ± 0.27 %ID/g | tissue uptake at 1 h (in vivo; Tissue distribution, Liver): 0.42 ± 0.03 %ID/g | tissue uptake at 5 min (in vivo; Tissue distribution, Lung): 1.38 ± 0.21 %ID/g | tissue uptake at 1 h (in vivo; Tissue distribution, Lung): 0.58 ± 0.1 %ID/g | tissue uptake at 5 min (in vivo; Tissue distribution, Norm mus): 0.62 ± 0.09 %ID/g | tissue uptake at 1 h (in vivo; Tissue distribution, Norm mus): 0.35 ± 0.09 %ID/g | tissue uptake at 5 min (in vivo; Tissue distribution, Spleen): 1.7 ± 0.68 %ID/g | tissue uptake at 1 h (in vivo; Tissue distribution, Spleen): 0.26 ± 0.01 %ID/g | tissue uptake at 5 min (in vivo; Tissue distribution, Teste): 0.59 ± 0.08 %ID/g | tissue uptake at 1 h (in vivo; Tissue distribution, Teste): 0.2 ± 0.03 %ID/g | tissue uptake at 1 h (in vivo; ^18F bone uptake (defluorination in vivo)): 1.17 ± 0.21 %ID/g | Tissue distribution, Adrenal (E. coli infected rats; rat, in vivo, iv, 5 min): 2.00±0.24 percent injected dose per gram | Tissue distribution, Blood (E. coli infected rats; rat, in vivo, iv, 5 min): 0.85±0.04 percent injected dose per gram | Tissue distribution, Bone (E. coli infected rats; rat, in vivo, iv, 5 min): 0.86±0.12 percent injected dose per gram | Tissue distribution, Heart (E. coli infected rats; rat, in vivo, iv, 5 min): 0.96±0.10 percent injected dose per gram | Tissue distribution, Inf mus (E. coli infected rats; rat, in vivo, iv, 5 min): 0.44±0.05 percent injected dose per gram | Tissue distribution, Kidney (E. coli infected rats; rat, in vivo, iv, 5 min): 2.70±0.48 percent injected dose per gram | Tissue distribution, Liver (E. coli infected rats; rat, in vivo, iv, 5 min): 1.91±0.22 percent injected dose per gram | Tissue distribution, Lung (E. coli infected rats; rat, in vivo, iv, 5 min): 1.59±0.16 percent injected dose per gram | Tissue distribution, Norm mus (E. coli infected rats; rat, in vivo, iv, 5 min): 0.69±0.10 percent injected dose per gram | Tissue distribution, Spleen (E. coli infected rats; rat, in vivo, iv, 5 min): 0.99±0.10 percent injected dose per gram | Tissue distribution, Teste (E. coli infected rats; rat, in vivo, iv, 5 min): 0.74±0.11 percent injected dose per gram | Tissue distribution, Adrenal (E. coli infected rats; rat, in vivo, iv, 1 h): 0.72±0.12 percent injected dose per gram | Tissue distribution, Bone (E. coli infected rats; rat, in vivo, iv, 1 h): 1.10±0.20 percent injected dose per gram | Tissue distribution, Inf mus (E. coli infected rats; rat, in vivo, iv, 1 h): 0.18±0.02 percent injected dose per gram | Tissue distribution, Liver (E. coli infected rats; rat, in vivo, iv, 1 h): 0.55±0.13 percent injected dose per gram | Tissue distribution, Lung (E. coli infected rats; rat, in vivo, iv, 1 h): 0.55±0.12 percent injected dose per gram | Tissue distribution, Norm mus (E. coli infected rats; rat, in vivo, iv, 1 h): 0.28±0.04 percent injected dose per gram | Tissue distribution, Spleen (E. coli infected rats; rat, in vivo, iv, 1 h): 0.51±0.09 percent injected dose per gram | Tissue distribution, Teste (E. coli infected rats; rat, in vivo, iv, 1 h): 0.15±0.02 percent injected dose per gram | binding to avidin (avidin): no specific binding
Compound: O=C1N[C@H]2[C@H](CS[C@H]2CCCCC[18F])N1 [Biotin 2]
Infected to normal tissue ratio, Adrenal (E. coli infected rats; With Avidin, 5 Min.): 0.22±0.03 | Infected to normal tissue ratio, Blood (E. coli infected rats; With Avidin, 5 Min.): 0.51±0.07 | Infected to normal tissue ratio, Heart (E. coli infected rats; With Avidin, 5 Min.): 0.46±0.03 | Infected to normal tissue ratio, Kidney (E. coli infected rats; With Avidin, 5 Min.): 0.16±0.02 | Infected to normal tissue ratio, Liver (E. coli infected rats; With Avidin, 5 Min.): 0.23±0.02 | Infected to normal tissue ratio, Lung (E. coli infected rats; With Avidin, 5 Min.): 0.28±0.02 | Infected to normal tissue ratio, Spleen (E. coli infected rats; With Avidin, 5 Min.): 0.44±0.05 | Infected to normal tissue ratio, Teste (E. coli infected rats; With Avidin, 5 Min.): 0.59±0.03 | Infected to normal tissue ratio, bone (E. coli infected rats; With Avidin, 5 Min.): 0.51±0.03 | Infected to normal tissue ratio, Norm mus (E. coli infected rats; With Avidin, 5 Min.): 0.65±0.10 | Infected to normal tissue ratio, Adrenal (E. coli infected rats; With Avidin, 60 Min.): 0.214±0.03 | Infected to normal tissue ratio, Blood (E. coli infected rats; With Avidin, 60 Min.): 0.71±0.05 | Infected to normal tissue ratio, Heart (E. coli infected rats; With Avidin, 60 Min.): 0.91±0.05 | Infected to normal tissue ratio, Kidney (E. coli infected rats; With Avidin, 60 Min.): 0.13±0.02 | Infected to normal tissue ratio, Liver (E. coli infected rats; With Avidin, 60 Min.): 0.33±0.05 | Infected to normal tissue ratio, Lung (E. coli infected rats; With Avidin, 60 Min.): 0.33±0.06 | Infected to normal tissue ratio, Spleen (E. coli infected rats; With Avidin, 60 Min.): 0.35±0.04 | Infected to normal tissue ratio, Teste (E. coli infected rats; With Avidin, 60 Min.): 1.15±0.06 | Infected to normal tissue ratio, bone (E. coli infected rats; With Avidin, 60 Min.): 0.17±0.03 | Infected to normal tissue ratio, Norm mus (E. coli infected rats; With Avidin, 60 Min.): 0.64±0.07 | Infected to normal tissue ratio, Adrenal (E. coli infected rats; Without Avidin, 5 Min.): 0.31±0.02 | Infected to normal tissue ratio, Blood (E. coli infected rats; Without Avidin, 5 Min.): 0.56±0.04 | Infected to normal tissue ratio, Heart (E. coli infected rats; Without Avidin, 5 Min.): 0.61±0.03 | Infected to normal tissue ratio, Kidney (E. coli infected rats; Without Avidin, 5 Min.): 0.30±0.02 | Infected to normal tissue ratio, Liver (E. coli infected rats; Without Avidin, 5 Min.): 0.31±0.04 | Infected to normal tissue ratio, Lung (E. coli infected rats; Without Avidin, 5 Min.): 0.36±0.05 | Infected to normal tissue ratio, Spleen (E. coli infected rats; Without Avidin, 5 Min.): 0.70±0.04 | Infected to normal tissue ratio, Teste (E. coli infected rats; Without Avidin, 5 Min.): 0.84±0.10 | Infected to normal tissue ratio, bone (E. coli infected rats; Without Avidin, 5 Min.): 0.67±0.05 | Infected to normal tissue ratio, Norm mus (E. coli infected rats; Without Avidin, 5 Min.): 0.80±0.12 | Infected to normal tissue ratio, Adrenal (E. coli infected rats; Without Avidin, 60 Min.): 0.23±0.05 | Infected to normal tissue ratio, Blood (E. coli infected rats; Without Avidin, 60 Min.): 0.68±0.06 | Infected to normal tissue ratio, Heart (E. coli infected rats; Without Avidin, 60 Min.): 0.81±0.05 | Infected to normal tissue ratio, Kidney (E. coli infected rats; Without Avidin, 60 Min.): 0.35±0.03 | Infected to normal tissue ratio, Liver (E. coli infected rats; Without Avidin, 60 Min.): 0.48±0.33 | Infected to normal tissue ratio, Lung (E. coli infected rats; Without Avidin, 60 Min.): 0.43±0.20 | Infected to normal tissue ratio, Spleen (E. coli infected rats; Without Avidin, 60 Min.): 0.78±0.08 | Infected to normal tissue ratio, Teste (E. coli infected rats; Without Avidin, 60 Min.): 1.04±0.11 | Infected to normal tissue ratio, bone (E. coli infected rats; Without Avidin, 60 Min.): 0.17±0.03 | Infected to normal tissue ratio, Norm mus (E. coli infected rats; Without Avidin, 60 Min.): 0.58 ± 0.07 | Infected to normal tissue ratio, Norm mus (E. coli infected rats; Without Avidin, 60 Min., listed as 18F-labeled biotin 2): 0.58±0.07

Compound: ^67Ga-citrate
Infected/normal muscle ratio [1]: 2.6±0.6

From patent EP0769966B1, “BIOTIN COMPOUNDS FOR TARGETTING TUMORS AND SITES OF INFECTION” (priority 1994, dated 1995)
